This is an account of results in patent publication US20080161309A1, “Novel Compounds” (priority 2004, published 2008).

Where a name gives a salt, the structure may show the parent alone. Read-outs that look alike come from different tables or passages of the source.

A short description of series [1]: Vapor sorption analysis of salts. It counts as physicochemical. Conditions: 90% relative humidity, 25° C.; for moles water uptake per total moles of sample at 90% RH: calculated; for % mass change at 90% RH: compared to original mass of sample. As to the method:
The propensity of besylate, hydrochloride, edisylate and fumarate salts of (2S)-2-[(S)-(4-chloro-2-methoxyphenoxy)(phenyl)methyl]morpholine to absorb water vapor was studied at various relative humidities (RH). The besylate, hydrochloride, and edisylate salts were analysed using a VTI Corporation SGA-100 Symmetric Vapor Sorption Analyzer equipped with a CI Electronics Limited, CI MK2, 1 Gram Microbalance, an EdgeTech MODEL 2000 […] DF DEWPOINT HYGROMETER, and an JULABO USA, Inc F25-HE Refrigerated and Heated Circulator. The following method was used:
The propensity of (2S)-2-[(S)-(4-chloro-2-methoxyphenoxy)(phenyl)methyl]morpholine […] to absorb water was similarly analyzed using a VTI Corporation SGA-100 Symmetric Vapor Sorption Analyzer equipped with a CAHN INSTRUMENTS INC, INC. D-200 Digital Recording Balance, an EdgeTech MODEL 2000 […] DF DEWPOINT HYGROMETER, and a JULABO USA, Inc F25-HD Refrigerated and Heated Circulator.

For series [2], the system named is capsaicin-induced mechanical allodynia. Kind of series: Rat model of capsaicin-induced mechanical allodynia. It counts as in vivo. Particulars: sc, read-out: % Inhibition of allodynia. As for the experimental part:
Compounds of the present invention may be assayed for their ability to treat fibromylagia—like pain in a rat model of capsaicin-induced mechanical allodynia (e.g., Sluka, K A, (2002) J of Neuroscience, 22(13): 5687-5693). For example, a rat model of capsaicin-induced mechanical allodynia) was be carried out as follows:
On day 0, male Sprague-Dawley rats (˜150 g) in the dark cycle were placed in suspended wire-bottom cages and allowed to acclimate for 0.5 hour in a darkened, quiet room. The day 0 paw withdrawal threshold (PWT) was determined on the left hind paw by Von Frey hair assessment using the Dixon up and down method. After assessment, the plantar muscle of the right hind paw was injected with 100 μl capsaicin (0.25% (w/v) in 10% ethanol, 10% Tween 80, in sterile saline). On day 6 the PWT of the left hindpaw (contralateral from injection site) was determined for each animal. Animals from the day 6 prereads with PWT≦11.7 g were considered allodynic responders and were regrouped so that each cage had similar mean PWT values. On day 7, responders were dosed subcutaneously with 10 mg compound/kg body weight, or with vehicle alone. The vehicle was phosphate buffered saline containing 2% Cremophor® EL (BASF). The contralateral PWT values were determined at 1 hour after the single dose, with the investigator blinded to the dosing scheme.
In addition, the day 6 PWT was subtracted from the day 0 PWT to give the baseline window of allodynia present in each animal.

Series [3] addresses T1, human serotonin transporter (hSERT) (Homo sapiens, UniProt P31645).
T1 construct: expressed in transfected cells; host or cells: HEK-293, membranes
Kind of series: hSERT receptor binding, [125I]-RTI-55, HEK-293 membranes. As to the method:
Cell pastes of HEK-293 cells transfected with a human serotonin transporter cDNA were prepared. […] Aliquots of membranes (−2.5 mg/ml protein) were stored in liquid nitrogen until used.
The reaction was incubated and gently agitated for 90 minutes at room temperature, and terminated by removal of assay volume. […] Test compounds were run in duplicate, and specific binding was defined as the difference between binding in the presence and absence of 10 μM citalopram. Excel and GraphPad Prism software were used for data calculation and analysis. IC50 values were converted to Ki values using the Cheng-Prusoff equation.

Series [4] has as its target T2, human norepinephrine transporter (hNET) (Homo sapiens, UniProt P23975).
T2 construct: expressed in transfected cells; host or cells: HEK-293, membranes
Kind of series: hNET receptor binding, [125I]-RTI-55, HEK-293 membranes. Particulars: Cheng-Prusoff, read-out: NET Ki. As to the method: Cell pastes of HEK-293 cells transfected with a human norepinephrine transporter cDNA were prepared. The cell pastes were resuspended in 400 to 700 ml of Krebs-HEPES assay buffer (25 mM HEPES, 122 mM NaCl, 3 mM KCl, 1.2 mM MgSO4, 1.3 mM CaCl2, and 11 mM glucose, pH 7.4) with a Polytron homogenizer at setting 7 for 30 seconds. Aliquots of membranes (5 mg/ml protein) were stored in liquid nitrogen until used.
The binding assay was set up in Beckman deep-well polypropylene plates with a total volume of 250 μl containing: drug (10^−5M to 10^−12M), cell membranes, and […] [^125I]-RTI-55 (Perkin Elmer, NEX-272; specific activity 2200 Ci/mmol). The reaction was incubated by gentle agitation for 90 minutes at room temperature and was terminated by filtration through Whatman GF/C filter plates using a Brandel 96-well plate harvester. Scintillation fluid (100 μl) was added to each well, and bound [^125I]-RTI-55 was determined using a Wallac Trilux Beta Plate Counter. Test compounds were run in duplicate, and specific binding was defined as the difference between binding in the presence and absence of 10 μM desipramine.
Excel and GraphPad Prism software were used for data calculation and analysis. IC50 values were converted to Ki values using the Cheng-Prusoff equation. The Ki values (nM) for the hNET are reported below in Table 1.

Setting [5] is: male Sprague-Dawley rats, 10 mg/kg subcutaneously, PWT 1 hour after single dose, mean of eight animals, normalized for vehicle.
The mark [6] stands for this setting: [125I]-RTI-55, HEK-293 membranes, Cheng-Prusoff, read-out: SERT Ki.

T2 sequence (P23975 whole entry): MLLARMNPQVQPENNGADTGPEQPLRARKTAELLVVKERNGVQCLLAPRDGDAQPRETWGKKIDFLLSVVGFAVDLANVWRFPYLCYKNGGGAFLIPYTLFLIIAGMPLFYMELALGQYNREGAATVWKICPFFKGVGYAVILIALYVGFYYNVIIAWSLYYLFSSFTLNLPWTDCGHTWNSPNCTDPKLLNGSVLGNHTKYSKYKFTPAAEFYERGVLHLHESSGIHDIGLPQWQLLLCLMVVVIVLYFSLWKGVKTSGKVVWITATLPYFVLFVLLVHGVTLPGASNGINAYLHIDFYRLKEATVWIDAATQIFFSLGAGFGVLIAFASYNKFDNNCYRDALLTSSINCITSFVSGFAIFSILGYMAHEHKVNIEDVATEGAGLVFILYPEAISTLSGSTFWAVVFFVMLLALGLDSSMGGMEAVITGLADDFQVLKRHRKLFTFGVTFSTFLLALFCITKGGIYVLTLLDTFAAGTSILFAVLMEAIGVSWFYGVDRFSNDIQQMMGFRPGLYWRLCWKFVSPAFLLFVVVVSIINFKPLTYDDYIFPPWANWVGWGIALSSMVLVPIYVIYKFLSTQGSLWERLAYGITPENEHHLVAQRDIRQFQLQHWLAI
T1 sequence (P31645 whole entry): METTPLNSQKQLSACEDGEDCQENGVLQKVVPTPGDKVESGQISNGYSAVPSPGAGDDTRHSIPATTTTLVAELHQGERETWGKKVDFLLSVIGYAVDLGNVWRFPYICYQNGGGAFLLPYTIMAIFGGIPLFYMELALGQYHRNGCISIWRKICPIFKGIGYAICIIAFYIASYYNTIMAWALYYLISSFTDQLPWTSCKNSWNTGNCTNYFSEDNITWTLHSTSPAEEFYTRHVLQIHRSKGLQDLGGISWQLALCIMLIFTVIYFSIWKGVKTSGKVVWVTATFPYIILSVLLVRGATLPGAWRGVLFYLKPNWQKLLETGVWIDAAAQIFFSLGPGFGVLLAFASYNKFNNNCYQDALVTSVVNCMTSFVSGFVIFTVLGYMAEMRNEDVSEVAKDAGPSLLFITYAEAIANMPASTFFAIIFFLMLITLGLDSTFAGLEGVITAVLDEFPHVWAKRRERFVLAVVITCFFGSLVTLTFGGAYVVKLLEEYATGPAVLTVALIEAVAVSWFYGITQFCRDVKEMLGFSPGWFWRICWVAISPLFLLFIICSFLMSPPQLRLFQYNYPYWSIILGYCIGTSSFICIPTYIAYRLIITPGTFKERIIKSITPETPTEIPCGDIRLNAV

The compound `Fc1cc(Cl)ccc1OC(c1ccccc1)C1CNCCO1` (centres unmarked) (as salt: tartrate) [Example 5] came in with a melting point of 92.68 °C.
On the same count and under the same terms, the result for `Fc1cccc(OC(c2ccccc2)C2CNCCO2)c1F` (centres unmarked) (as salt: fumarate) [Example 6] reads 119.96 °C.
The same measure, in the same setting: the result for `c1ccc(C(Oc2cccc3cccnc23)C2CNCCO2)cc1` (centres unmarked) (as salt: succinate) [Example 9] reads 98.24 °C.
Take “(2S)-2-[(S)-(4-chloro-2-methoxyphenoxy)(phenyl)methyl]morpholine edisylate”: in series [1], the “moles water uptake per total moles of sample at 90% RH” value is given as 1.32 and the “% mass change at 90% RH” value is listed as 4.6%.
As for `COc1cc(Cl)ccc1O[C@@H](c1ccccc1)[C@@H]1CNCCO1.Cl` [Example 38, (2S)-2-[(1S)-(4-chloro-2-methoxyphenoxy) (phenyl)methyl] morpholine hydrochloride], the inhibition in vivo at 10 mg/kg in series [2] (setting [5]) was determined as 59%. In series [1], the “moles water uptake per total moles of sample at 90% RH” value was 0.77 and the “% mass change at 90% RH” value is 3.8%.
On to `COc1cc(Cl)ccc1O[C@@H](c1ccccc1)[C@@H]1CNCCO1.O=S(=O)(O)c1ccccc1` [besylate, (2S)-2-[(S)-(4-chloro-2-methoxyphenoxy)(phenyl)methyl]morpholine besylate], for which, in series [1], the “moles water uptake per total moles of sample at 90% RH” value is on record as 0.17 and the “% mass change at 90% RH” value was determined as 0.64%.
`Fc1c(Cl)cccc1OC(c1ccccc1)C1CNCCO1` (centres unmarked) (as salt: edisylate) [Example 8] had a melting point of 189.23 °C.
As for `COc1cc(F)ccc1O[C@@H](c1cccc(Cl)c1)[C@@H]1CNCCO1` [Example 52, (2S)-2-[(1S)-(3-Chlorophenyl) (4-fluoro-2-methoxyphenoxy)methyl] morpholine hydrochloride], the Ki in series [3] (setting [6]) was found to be 194 nM; in series [4], 549 nM. In addition, in series [2] (setting [5]), the inhibition in vivo at 10 mg/kg was determined as 7%.
For `Fc1cccc([C@H](Oc2ccc(F)cc2Cl)[C@@H]2CNCCO2)c1` [Example 37, (2S)-2-[(1S)-(2-chloro-4-fluorophenoxy)-(3-fluorophenyl)methyl]morpholine hydrochloride], in that order: 52.2 nM, 13.1 nM and 80.3%.
With `COc1cc(Cl)ccc1O[C@@H](c1cccc(F)c1)[C@@H]1CNCCO1` [Example 45, (2S)-2-[(1S)-(4-Chloro-2-methoxyphenoxy)(3-fluorophenyl)methyl] morpholine hydrochloride], the Ki in series [3] amounted to 30 nM; in series [4] it was 10.5 nM. The inhibition in vivo at 10 mg/kg in series [2] (1 h) turned out to be 54.6%.
On to `Fc1cccc([C@H](Oc2cc(F)ccc2Cl)[C@@H]2CNCCO2)c1` [Example 41, (2S)-2-[(1S)-(2-Chloro-5-fluorophenoxy)(3-fluorophenyl)methyl] morpholine hydrochloride], for which the Ki was found to be 126 nM in series [3] (setting [6]) and 7.3 nM in series [4]. Besides, in series [2] (setting [5]), the inhibition in vivo at 10 mg/kg is 21.1%.
The like results for `Fc1ccc(O[C@@H](c2ccccn2)[C@@H]2CNCCO2)c(Cl)c1` [Example 105, (2S)-2-[(1S)-(2-chloro-4-fluorophenoxy)(pyridin-2-yl)methyl]morpholine fumarate] were, in that order, 621 nM, 3.5 nM and 13.7%.
In turn, `Fc1ccc(OC(c2ccccc2)C2CNCCO2)c(F)c1` (centres unmarked) (as salt: hydrobromid) [Example 7] displayed a melting point of 106.48 °C.
As to `COc1cc(F)ccc1O[C@@H](c1cccc(F)c1)[C@@H]1CNCCO1` [Example 46, (2S)-2-[(1S)-(4-Fluoro-2-methoxyphenoxy)(3-fluorophenyl)methyl] morpholine hydrochloride], the Ki in series [3] (setting [6]) was 222 nM; in series [4], 15.1 nM. Besides, the inhibition in vivo at 10 mg/kg in series [2] (setting [5]) was found to be 46.1%.
On to `COc1cc(Cl)ccc1OC(c1cccc(F)c1)C1CNCCO1` (centres unmarked) (as salt: camsylate) [Example 3], for which the melting point stood at 162.03 °C.
With `COc1cc(Cl)ccc1O[C@@H](c1ccccc1)[C@@H]1CNCCO1.O=C(O)/C=C/C(=O)O` [fumaric, (2S)-2-[(1S)-(4-chloro-2-methoxyphenoxy) (phenyl)methyl]morpholine fumarate], in series [1], the “moles water uptake per total moles of sample at 90% RH” value is given as 0.69 and the “% mass change at 90% RH” value is 2.8%.
Take `FC(F)Oc1cc(Cl)ccc1OC(c1ccccc1)C1CNCCO1` (centres unmarked) (as salt: citrate) [Example 4]: the melting point amounted to 119.29 °C.
Consider `COc1cccc([C@H](Oc2ccc(F)cc2Br)[C@@H]2CNCCO2)c1` [Example 70, (2S)-2-[(1S)-(2-Bromo-4-fluorophenoxy) (3-methoxyphenyl)methyl] morpholine hydrochloride], for which the Ki in series [3] (setting [6]) came out at 111 nM; in series [4], 11.9 nM. Further, in series [2] (setting [5]), the inhibition in vivo at 10 mg/kg came out at 27.3%.
For `Fc1ccc(O[C@@H](c2cccc(Cl)c2)[C@@H]2CNCCO2)c(Cl)c1` [Example 102, (2S)-2-[(1S)-(2-Chloro-4-fluorophenoxy) (3-chlorophenyl)methyl] morpholine fumarate], in that order: 222 nM, 48.3 nM and 59.5%.
With `Cc1ccc(Cl)c(O[C@@H](c2ccccc2)[C@@H]2CNCCO2)c1` [Example 87, (2S)-2-[(1S)-(2-Chloro-5-methylphenoxy)phenylmethyl] morpholine fumarate], the Ki was determined as 184 nM in series [3] (setting [6]) and 18 nM in series [4]. In series [2] (setting [5]), the inhibition in vivo at 10 mg/kg is 9.3%.
On to `COc1cc(Cl)ccc1OC(c1ccc(F)cc1)C1CNCCO1` (centres unmarked) (as salt: hydrochloride) [Example 2], for which the melting point is 148.11 °C.
For the compound `COc1cccc([C@H](Oc2ccc(C)cc2OC)[C@@H]2CNCCO2)c1` [Example 62, (2S)-2-[(1S)-(2-Methoxy-4-methylphenoxy) (3-methoxyphenyl)methyl] morpholine hydrochloride], the results for the Ki in series [3] (setting [6]) and in series [4] were 153 nM and 15.3 nM, respectively. Further, the inhibition in vivo at 10 mg/kg in series [2] (setting [5]) came out at 40.5%.

A word on the melting point: it is the temperature of the solid-liquid transition. As a reminder, the Ki is the equilibrium dissociation constant of an inhibitor or competing ligand from its target.
